Experimental data as given in US20250376461A1, “INDAZOLE DERIVATIVES FOR TREATING TRPM3-MEDIATED DISORDERS” (Katholieke Universiteit Leuven, priority 2022, published 2025).

Biological target: T1, mouse TRPM3α2 (mTRPM3) ion channel (Mus musculus, UniProt J9SQF3)
T1 construct: expressed in transfected cells; host or cells: flip-in HEK293
Test: TRPM3 ion channel driven Ca2+ uptake, Fluo-4 AM assay, mTRPM3alpha2 overexpressing flip-in HEK293 cells stimulated with pregnenolone sulfate (50 μM)
Type: cell-based
Settings: mTRPM3 overexpressing HEK293 cells stimulated with pregnenolone sulfate (50 μM), activity ranges A, B, C
Method: Monitoring the TRPM3 Ion Channel Driven Ca2+ Uptake.
In order to monitor the inhibition of the mouse TRPM3α2 (mTRPM3) ion channel by the compounds of the invention, a cellular system making use of an mTRPM3alpha2 or hTRPM3 overexpressing cell line (flip-in HEK293) was used. The TRPM3 channel was stimulated/opened with Pregnenolone sulfate (PS) (50 μM) which results in Ca^2+ influx.
For mTRPM3, the intracellular Ca^2+ was measured with a Calcium responsive dye, Fluor-4 AM ester (Invitrogen). Cells were cultured until a confluence of 80-90%, washed with Versene (Invitrogen) and detached from the surface by a short incubation with 0.05% Trypsin (Invitrogen). The trypsination process was stopped by the addition of complete cell culture medium (DMEM, glutamax, 10% FCS, NEAA, Pen-Strep). Cells were collected and resuspended in Krebs buffer without Calcium at RT.
Prior the cell seeding (±2000 cells/well into a black, 384 well plate (Greiner)) the diluted compound was added in the assay plate, together with the PS dissolved in Krebs buffer containing Calcium. […] Directly after cell addition the plates were read on an Envision fluorescence reader (Perkin Elmer) by an Excitation of 485 nm and emission at 535 nm.
Channel inhibition was calculated compared to a non-PS stimulated control versus a condition stimulated with PS (50 μM) with vehicle. The ability of the compounds of the invention to inhibit this activity was determined as: Percentage inhibition=[1−((RFU determined for sample with test compound present−RFU determined for sample with positive control inhibitor) divided by (RFU determined in the presence of vehicle−RFU determined for sample with positive control inhibitor))]*100.
The activities of the Example compounds cpd 001-262 tested are depicted in the table below. All tested compounds show an activity in the Fluo-4 AM assay. The activity ranges A, B and C refer to IC50 values in the Fluo-4 AM assay as follows: “A”: IC50<1 μM; “B”: 1 μM≤IC50≤20 μM and “C”: IC50>20 μM.

T1 sequence (J9SQF3 1-1709 isoform J9SQF3-12): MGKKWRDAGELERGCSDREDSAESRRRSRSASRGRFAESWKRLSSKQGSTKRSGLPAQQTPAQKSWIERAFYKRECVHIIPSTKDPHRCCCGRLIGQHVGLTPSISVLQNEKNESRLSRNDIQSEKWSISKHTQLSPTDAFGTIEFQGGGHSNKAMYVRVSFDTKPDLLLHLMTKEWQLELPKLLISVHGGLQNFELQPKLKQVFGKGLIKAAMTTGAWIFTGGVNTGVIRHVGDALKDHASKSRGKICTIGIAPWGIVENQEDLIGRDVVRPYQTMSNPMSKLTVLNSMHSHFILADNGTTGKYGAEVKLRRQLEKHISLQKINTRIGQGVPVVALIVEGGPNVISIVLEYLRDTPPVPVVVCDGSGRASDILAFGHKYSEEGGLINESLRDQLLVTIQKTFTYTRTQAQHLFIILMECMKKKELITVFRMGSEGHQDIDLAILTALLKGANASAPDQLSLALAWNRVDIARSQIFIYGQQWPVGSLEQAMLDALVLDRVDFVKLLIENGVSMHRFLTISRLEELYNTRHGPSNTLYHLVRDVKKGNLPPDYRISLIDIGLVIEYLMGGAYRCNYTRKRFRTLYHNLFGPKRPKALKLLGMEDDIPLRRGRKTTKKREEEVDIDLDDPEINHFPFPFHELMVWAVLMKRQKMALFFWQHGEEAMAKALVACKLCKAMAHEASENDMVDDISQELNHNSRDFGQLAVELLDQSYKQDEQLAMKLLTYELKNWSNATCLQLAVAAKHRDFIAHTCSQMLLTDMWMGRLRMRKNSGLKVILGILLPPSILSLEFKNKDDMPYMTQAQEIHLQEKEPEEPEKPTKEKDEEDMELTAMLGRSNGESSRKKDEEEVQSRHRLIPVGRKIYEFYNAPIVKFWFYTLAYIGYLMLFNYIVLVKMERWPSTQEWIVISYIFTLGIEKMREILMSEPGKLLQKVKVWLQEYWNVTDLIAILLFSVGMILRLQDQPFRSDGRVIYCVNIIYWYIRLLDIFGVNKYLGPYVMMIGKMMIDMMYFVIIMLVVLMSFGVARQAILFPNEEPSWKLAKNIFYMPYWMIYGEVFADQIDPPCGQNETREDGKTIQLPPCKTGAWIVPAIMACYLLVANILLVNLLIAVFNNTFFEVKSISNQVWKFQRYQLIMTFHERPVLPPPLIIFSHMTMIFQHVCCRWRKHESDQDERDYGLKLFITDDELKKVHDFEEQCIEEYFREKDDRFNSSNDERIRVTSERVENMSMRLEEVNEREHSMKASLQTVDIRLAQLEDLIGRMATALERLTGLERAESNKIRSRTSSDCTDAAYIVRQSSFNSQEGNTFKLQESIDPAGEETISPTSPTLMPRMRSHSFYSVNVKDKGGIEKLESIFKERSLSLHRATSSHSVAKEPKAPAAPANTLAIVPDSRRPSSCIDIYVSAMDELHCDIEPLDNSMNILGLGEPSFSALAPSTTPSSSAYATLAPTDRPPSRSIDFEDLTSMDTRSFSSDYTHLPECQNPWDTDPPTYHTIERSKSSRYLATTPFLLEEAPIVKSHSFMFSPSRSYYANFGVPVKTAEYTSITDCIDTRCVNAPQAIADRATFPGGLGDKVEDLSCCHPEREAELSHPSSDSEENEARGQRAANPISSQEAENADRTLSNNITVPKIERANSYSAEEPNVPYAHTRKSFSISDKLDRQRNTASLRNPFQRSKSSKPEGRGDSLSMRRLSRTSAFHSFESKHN

| IC50 [µM] | SMILES |
| --- | --- |
| > 20 | Cn1nc2ccc(OCc3ccccc3)cc2c1C(=O)NC1CNCC1(F)F (single isomer, unassigned) [Cpd 002 - En1, 5-(benzyloxy)-N-(4,4-difluoropyrrolidin-3-yl)-2-methyl-2H-indazole-3-carboxamide] |
| 1 to 20 | Cn1nc2ccc(OCc3ccccc3)cc2c1C(=O)NC1CNCC1(F)F (single isomer, unassigned) [Cpd 002 - En2, 5-(benzyloxy)-N-(4,4-difluoropyrrolidin-3-yl)-2-methyl-2H-indazole-3-carboxamide] |
| < 1 | Cn1nc2ccc(OCc3cccnc3C(F)(F)F)cc2c1C(=O)NC1CCNCC1(F)F (single isomer, unassigned) [Cpd 003 - En1] |
| 1 to 20 | Cn1nc2ccc(OCc3cccnc3C(F)(F)F)cc2c1C(=O)NC1CCNCC1(F)F (single isomer, unassigned) [Cpd 003 - En2] |
| 1 to 20 | Cn1nc2ccc(OCc3cccnc3C(F)(F)F)cc2c1C(=O)N[C@@H]1COC[C@@H]1O (single isomer, unassigned) [Cpd 010 - Dia1] |
| 1 to 20 | Cn1nc2ccc(OCc3cccnc3C(F)(F)F)cc2c1C(=O)N[C@@H]1COC[C@@H]1O (single isomer, unassigned) [Cpd 010 - Dia2] |
| 1 to 20 | Cn1nc2ccc(OCc3ccccc3)cc2c1C(=O)N[C@@H]1COC[C@H]1O (single isomer, unassigned) [Cpd 011 - Dia1] |
| 1 to 20 | Cn1nc2ccc(OCc3ccccc3)cc2c1C(=O)N[C@@H]1COC[C@H]1O (single isomer, unassigned) [Cpd 011 - Dia2] |
| 1 to 20 | Cn1nccc1COc1ccc2nn(C)c(C(=O)NC3COCC3O)c2c1 (single isomer, unassigned) [Cpd 056 - Dia1] |
| > 20 | Cn1nccc1COc1ccc2nn(C)c(C(=O)NC3COCC3O)c2c1 (single isomer, unassigned) [Cpd 056 - Dia2] |
| 1 to 20 | Cc1ncsc1COc1ccc2nn(C)c(C(=O)NC3COCC3O)c2c1 (single isomer, unassigned) [Cpd 080 - Dia1] |
| > 20 | Cc1ncsc1COc1ccc2nn(C)c(C(=O)NC3COCC3O)c2c1 (single isomer, unassigned) [Cpd 080 - Dia2] |
| 1 to 20 | Cn1nc2ccc(OCc3ccccn3)cc2c1C(=O)NC1CCNCC1(F)F (single isomer, unassigned) [Cpd 128 - En1] |
| > 20 | Cn1nc2ccc(OCc3ccccn3)cc2c1C(=O)NC1CCNCC1(F)F (single isomer, unassigned) [Cpd 128 - En2] |
| 1 to 20 | Cc1ncsc1COc1ccc2nn(C)c(C(=O)NC3CCNCC3(F)F)c2c1 (single isomer, unassigned) [Cpd 132 - En1] |
| 1 to 20 | Cc1ncsc1COc1ccc2nn(C)c(C(=O)NC3CCNCC3(F)F)c2c1 (single isomer, unassigned) [Cpd 132 - En2] |
| < 1 | Cc1ncsc1COc1ccc2nn(C)c(C(=O)NC(C)(CO)C(N)=O)c2c1 (single isomer, unassigned) [Cpd 151 - En1] |
| 1 to 20 | Cc1ncsc1COc1ccc2nn(C)c(C(=O)NC(C)(CO)C(N)=O)c2c1 (single isomer, unassigned) [Cpd 151 - En2] |
| > 20 | Cn1nccc1COc1ccc2nn(C)c(C(=O)NC(C)(CO)C(N)=O)c2c1 (single isomer, unassigned) [Cpd 154 - En1] |
| < 1 | Cn1nccc1COc1ccc2nn(C)c(C(=O)NC(C)(CO)C(N)=O)c2c1 (single isomer, unassigned) [Cpd 154 - En2] |
| > 20 | Cn1ccc(COc2ccc3nn(C)c(C(=O)NC(C)(CO)C(N)=O)c3c2)n1 (single isomer, unassigned) [Cpd 155 - En1] |
| 1 to 20 | Cn1ccc(COc2ccc3nn(C)c(C(=O)NC(C)(CO)C(N)=O)c3c2)n1 (single isomer, unassigned) [Cpd 155 - En2] |
| 1 to 20 | Cc1ncc(COc2ccc3nn(C)c(C(=O)NC(C)(CO)C(N)=O)c3c2)s1 (single isomer, unassigned) [Cpd 157 - En1, 3-hydroxy-2-methyl-2-({2-methyl-5-[(2-methyl-1,3-thiazol-5-yl)methoxy]-2H-indazol-3-yl}formamido)propanamide] |

| IC50 [µM] | SMILES |
| --- | --- |
| < 1 | Cc1ncc(COc2ccc3nn(C)c(C(=O)NC(C)(CO)C(N)=O)c3c2)s1 (single isomer, unassigned) [Cpd 157 - En2, 3-hydroxy-2-methyl-2-({2-methyl-5-[(2-methyl-1,3-thiazol-5-yl)methoxy]-2H-indazol-3-yl}formamido)propanamide] |
| 1 to 20 | Cn1nc2ccc(OCC3CCOCC3)cc2c1C(=O)NC(C)(CO)C(N)=O (single isomer, unassigned) [Cpd 158 - En1] |
| > 20 | Cn1nc2ccc(OCC3CCOCC3)cc2c1C(=O)NC(C)(CO)C(N)=O (single isomer, unassigned) [Cpd 158 - En2] |
| 1 to 20 | Cn1nc2ccc(OCC3CCC3)cc2c1C(=O)NC1(CO)CCNC1=O (single isomer, unassigned) [Cpd 159 - En1] |
| < 1 | Cn1nc2ccc(OCC3CCC3)cc2c1C(=O)NC1(CO)CCNC1=O (single isomer, unassigned) [Cpd 159 - En2] |
| 1 to 20 | Cc1nc(COc2ccc3nn(C)c(C(=O)NC(C)(CO)C(N)=O)c3c2)cs1 (single isomer, unassigned) [Cpd 160 - En1] |
| < 1 | Cc1nc(COc2ccc3nn(C)c(C(=O)NC(C)(CO)C(N)=O)c3c2)cs1 (single isomer, unassigned) [Cpd 160 - En2] |
| < 1 | Cn1nc2ccc(OCC3CC3)cc2c1C(=O)NC1(CO)CCNC1=O (single isomer, unassigned) [Cpd 161 - En1] |
| > 20 | Cn1nc2ccc(OCC3CC3)cc2c1C(=O)NC1(CO)CCNC1=O (single isomer, unassigned) [Cpd 161 - En2] |
| 1 to 20 | Cn1nc2ccc(OCc3ccccn3)cc2c1C(=O)NC(C)(CO)C(N)=O (single isomer, unassigned) [Cpd 162 - En1] |
| < 1 | Cn1nc2ccc(OCc3ccccn3)cc2c1C(=O)NC(C)(CO)C(N)=O (single isomer, unassigned) [Cpd 162 - En2] |
| < 1 | Cc1ncsc1COc1ccc2nn(C)c(C(=O)NC3(CO)CCNC3=O)c2c1 (single isomer, unassigned) [Cpd 163 - En1, N-[3-(hydroxymethyl)-2-oxopyrrolidin-3-yl]-2-methyl-5-[(4-methyl-1,3-thiazol-5-yl)methoxy]-2H-indazole-3-carboxamide] |
| 1 to 20 | Cc1ncsc1COc1ccc2nn(C)c(C(=O)NC3(CO)CCNC3=O)c2c1 (single isomer, unassigned) [Cpd 163 - En2, N-[3-(hydroxymethyl)-2-oxopyrrolidin-3-yl]-2-methyl-5-[(4-methyl-1,3-thiazol-5-yl)methoxy]-2H-indazole-3-carboxamide] |
| 1 to 20 | Cc1ccc(COc2ccc3nn(C)c(C(=O)NC4(C(N)=O)CCOC4)c3c2)cn1 (single isomer, unassigned) [Cpd 164 - En1, N-(3-carbamoyloxolan-3-yl)-2-methyl-5-[(6-methylpyridin-3-yl)methoxy]-2H-indazole-3-carboxamide] |
| 1 to 20 | Cc1ccc(COc2ccc3nn(C)c(C(=O)NC4(C(N)=O)CCOC4)c3c2)cn1 (single isomer, unassigned) [Cpd 164 - En2, N-(3-carbamoyloxolan-3-yl)-2-methyl-5-[(6-methylpyridin-3-yl)methoxy]-2H-indazole-3-carboxamide] |
| 1 to 20 | Cn1nc2ccc(OCC3CC3)cc2c1C(=O)NC1(C(N)=O)CCOC1 (single isomer, unassigned) [Cpd 165 - En1] |
| > 20 | Cn1nc2ccc(OCC3CC3)cc2c1C(=O)NC1(C(N)=O)CCOC1 (single isomer, unassigned) [Cpd 165 - En2] |
| 1 to 20 | Cn1nc2ccc(OCc3ccccc3F)cc2c1C(=O)NC1(C(N)=O)CCOC1 (single isomer, unassigned) [Cpd 166 - En1] |
| < 1 | Cn1nc2ccc(OCc3ccccc3F)cc2c1C(=O)NC1(C(N)=O)CCOC1 (single isomer, unassigned) [Cpd 166 - En2] |
| > 20 | Cn1nc2ccc(OCC3COC3)cc2c1C(=O)NC(C)(CO)C(N)=O (single isomer, unassigned) [Cpd 167 - En1] |
| > 20 | Cn1nc2ccc(OCC3COC3)cc2c1C(=O)NC(C)(CO)C(N)=O (single isomer, unassigned) [Cpd 167 - En2] |
| 1 to 20 | Cn1nc2ccc(OCc3cccnc3)cc2c1C(=O)NC1(C(N)=O)CCOC1 (single isomer, unassigned) [Cpd 168 - En1] |
| < 1 | Cn1nc2ccc(OCc3cccnc3)cc2c1C(=O)NC1(C(N)=O)CCOC1 (single isomer, unassigned) [Cpd 168 - En2] |
